Non-standard residues stand in square brackets, D forms with d. Residues, ends and D or L forms follow the SMILES beside them. Aib = CC(C)(N)C(=O)O
Columns and labels:
HT1080 cells = test: FBS-directed migration of HT1080 cells in Boyden chambers; assay type: cell-based, human; settings: 10 nM peptide, 10% FBS, 4 hrs
Protocol: FIG. 4 Retro-inverso peptides inhibit FBS-directed migration of HT1080 cells in a dose dependent manner (Example 4).
To assess whether retro-inverso peptides exert some effect on directional cell migration, HT1080 cells were allowed to migrate for 4 hrs in Boyden chambers toward serum-free medium (CTRL), 10% FBS (None) or 10% FBS mixed with peptides, each tested at 10 nM concentration. For quantitative analysis, the basal values assessed in the absence of FBS (CTRL) was taken as 100% and all values were reported relative to that. Data are the means±SD of two independent experiments, performed in triplicate. Statistical significance calculated against None with *p<0.01, **p<0.001 (A). All retro-inverso peptides caused a reduction of FBS-directed cell migration although to different extent. Peptides RI-1, RI-2, RI-3, RI-4 and RI-5 reduced by 49%, 46%, 65%, 9% and 6%, respectively, the extent of FBS-directed cell migration. Similar results were obtained when, HT1080 cell migration was monitored in real time for 18 hrs at 37° C., 5% CO2 by the xCELLigence system. Data represent mean±SD from a quadruplicate experiment representative of 2 replicates (B). Then, HT1080 cells were allowed to migrate in Boyden chambers toward 10% FBS plus increasing concentrations of RI-3, and data were expressed as a percentage of cells migrated toward FBS alone (100%) Inhibitory effect of RI-3 is dose-dependent, it starts in the high fM range, it seems to level off in the nM range and reaches an overall 50% reduction at 1×10^−13M (C).

[1] = Stability in bovine serum, read out by HT1080 migration (xCELLigence); assay type: in vitro ADME; settings: 10^−3 mol/L in serum 18 hrs at 37° C., then tested at 10 nM
Protocol: FIG. 7 The retro-inverso peptide RI-3 is stable when pre-incubated in bovine (A) or human serum (B) as assessed in real time using the xCELLigence technology (A) or in Boyden chambers (B) (Example 7).
The stability of the retro-inverso peptide RI-3 in bovine and human serum was investigated through incubation of the peptide at a 10^−3 mol/L in serum for 18 hrs at 37° C. HT1080 cells were allowed to migrate toward DMEM (CTRL), 10% FBS (None), 10% FBS plus 10 nM RI-3 or 10% FBS with 10 nM RI-3 pre-incubated with bovine serum and the impedance values were automatically monitored in real time by the xCELLigence system for 18 hrs and expressed as cell index. Data represent the means from a quadruplicate experiment representative of 2 replicates. […] The stability of RI-3 in human serum was further investigated in cell invasion experiments performed in Boyden chambers. HT1080 cells were allowed to invade matrigel for 6 hrs, toward DMEM (CTRL), 10% FBS (None), 10% FBS plus 10 nM RI-3 or 10% FBS with 10 nM RI-3 pre-incubated with human serum. For quantitative analysis of cell invasion, the basal value assessed in the absence of FBS (CTRL) was taken as 100% and all values were reported relative to that. Data are the means±SD from a triplicate experiment. *Statistical significance was calculated against None with p<0.005. […]

[2] = test system: ovarian carcinoma SKOV-3 cells; test: Matrigel invasion (xCELLigence RTCA), SKOV-3; assay type: cell-based, human; settings: 10 nM, 20 hrs
Protocol: FIG. 8 At the concentration of 10 nM the retro-inverso peptide RI-3 prevents matrigel invasion of tumor cells from human osteosarcoma Saos-2 (A), chondrosarcoma Sarc (B), melanoma A375 (C), metastatic melanoma A375M6 (D), ovarian carcinoma SKOV-3 cells (E), or primary ovarian cancer cells derived from a tumor excision (OV-53) (F), as monitored in real-time for 20 hr as changes in cell index by the xCELLigence RTCA system (Example 8).
To investigate the ability of RI-3 to prevents matrigel invasion of tumor cells form different tissue origins, human osteosarcoma Saos-2 (A), chondrosarcoma Sarc (B) melanoma A375 (C), metastatic melanoma A375M6 (D), ovarian carcinoma SKOV-3 cells (E) or primary ovarian cancer cells derived from a tumor excision (OV-53) (F) were seeded on polymerized matrigel and allowed to invade matrigel in the absence (None) or in the presence of 10 nM RI-3. Cell invasion was monitored in real-time for 20 hrs as changes in cell index by the xCELLigence RTCA system. Data represent mean±SD from quadruplicate experiments. All cell lines were able to cross matrigel, although to a different extent. In all case RI-3 reduced matrigel invasion by about 30%, 31%, 64%, 57%, 53% and 68%, of Saos-2, Sarc, A375, A375M6, SKOV-3 and OV-53 cells, respectively.

HUVECs = test: Endothelial tube formation on matrigel; assay type: cell-based, human; settings: 10 nM
Protocol: FIG. 10 At the concentration of 10 nM the retro-inverso peptide RI-3 inhibits both FBS (61%) and VEGF-triggered (75%) endothelial tube formation. (A) representative pictures taken with an inverted microscope at 100× magnifications. (B) quantitative analysis (Example 10).
Endothelial cells undergo morphological differentiation into an extensive network of capillary-like structures consisting of highly organized three-dimensional cords when seeded on matrigel in the presence of a pro-angiogenic stimuli. HUVECs were suspended in medium (CTRL) or medium with 10% FBS or 40 ng/ml VEGF165, without (None) or with 10 nM RI-3 and seeded on matrigel-coated plates for 6 hrs at 37° C., 5% CO2. Representative pictures were taken with an inverted microscope at 100× magnifications. Scale bar: 10 μm (A). Quantitative analysis of tube formation was calculated as a percentage of tubes formed by cord-like structures counted in the absence of any angiogenic stimulus and considered as 100% (CTRL). Data represent means±SD of two independent experiments performed in duplicate. Statistical significance was calculated against none with *p<0.05, **p<0.001 (B). Both FBS and VEGF promoted endothelial tube formation, reaching 352% and 620%, respectively, above basal. The retro-inverso peptide RI-3 reduced FBS- and VEGF-dependent tube formation by 61% and 75%, respectively.

For `CC(=O)N[C@H](Cc1ccc(O)cc1)C(=O)N[C@H](CCCNC(=N)N)C(=O)NC(C)(C)C(=O)N[C@H](CCCNC(=N)N)C(N)=O` [RI-3, Ac-(D)-Tyr-(D)-Arg-Aib-(D)-Arg-NH2] (Ac-[dY][dR][Aib][dR]-NH2), the “reduction of the extent of FBS-directed cell migration” value (HT1080 cells) was 65%, the “stability after pre-incubation in bovine serum” value [1] was “stable to enzymatic digestion” and the “reduction of matrigel invasion” value [2] was about 53%. For the same compound, the “reduction of VEGF-dependent tube formation” value (HUVECs; 40 ng/ml VEGF165, 6 hrs) was 75% and the “reduction of FBS-dependent tube formation” value (HUVECs; 10% FBS, 6 hrs) was 61%.

Reference: patent US10836792B2, “Retro-inverso peptide inhibitors of cell migration, extracellular matrix and endothelial invasion by tumor cells” (ISTITUTO NAZIONALE TUMORI IRCCS “FONDAZIONE G. PASCALE”, priority 2016, dated 2020)
